ChEMBL document CHEMBL1201862, “PubChem BioAssay data set” (2004)
One block for each compound: values may come before it. Activity calls are given as the source filed them.

Key:
[1] = molecular target: T1, Rac GTPase-activating protein 1 (Homo sapiens, UniProt Q9H0H5); experiment: blockers of MgcRacGAP-driven Rac1 GTP hydrolysis – biochemical, ADP Hunter fluorescence, primary and confirmatory, confirmation (AID 624330); assay type: functional
T1 sequence (Q9H0H5 whole entry): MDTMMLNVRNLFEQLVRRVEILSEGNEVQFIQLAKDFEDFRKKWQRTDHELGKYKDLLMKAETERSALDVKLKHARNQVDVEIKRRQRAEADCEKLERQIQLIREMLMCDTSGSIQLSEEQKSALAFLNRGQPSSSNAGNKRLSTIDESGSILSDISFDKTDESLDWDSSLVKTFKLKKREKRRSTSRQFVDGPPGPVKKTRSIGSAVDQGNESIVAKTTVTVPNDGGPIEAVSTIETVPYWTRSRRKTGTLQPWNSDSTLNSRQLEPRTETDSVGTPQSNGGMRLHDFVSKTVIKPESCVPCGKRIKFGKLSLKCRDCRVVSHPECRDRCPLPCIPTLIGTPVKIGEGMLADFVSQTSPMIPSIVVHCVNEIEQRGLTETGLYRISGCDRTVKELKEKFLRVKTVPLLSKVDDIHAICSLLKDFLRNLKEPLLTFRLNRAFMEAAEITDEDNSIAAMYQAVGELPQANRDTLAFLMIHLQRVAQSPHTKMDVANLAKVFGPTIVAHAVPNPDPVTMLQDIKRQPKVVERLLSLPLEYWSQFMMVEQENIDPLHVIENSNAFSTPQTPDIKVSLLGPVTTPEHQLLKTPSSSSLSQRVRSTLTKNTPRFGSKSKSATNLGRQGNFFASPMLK

[2] = molecular target: T2, Heat shock factor protein 1 (Mus musculus, UniProt P38532); experiment: decrease of HSF1-responsive luciferase luminescence – cell-based, NIH3T3, dose retest, confirmation (AID 2382); assay type: functional;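 further: NIH3T3 fibroblasts with HSF1-driven luciferase reporter stressed by proteasome inhibitor MG132; luminescence from HSF1-driven luciferase expression after 8 hours of MG132 stress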
T2 sequence (P38532 whole entry): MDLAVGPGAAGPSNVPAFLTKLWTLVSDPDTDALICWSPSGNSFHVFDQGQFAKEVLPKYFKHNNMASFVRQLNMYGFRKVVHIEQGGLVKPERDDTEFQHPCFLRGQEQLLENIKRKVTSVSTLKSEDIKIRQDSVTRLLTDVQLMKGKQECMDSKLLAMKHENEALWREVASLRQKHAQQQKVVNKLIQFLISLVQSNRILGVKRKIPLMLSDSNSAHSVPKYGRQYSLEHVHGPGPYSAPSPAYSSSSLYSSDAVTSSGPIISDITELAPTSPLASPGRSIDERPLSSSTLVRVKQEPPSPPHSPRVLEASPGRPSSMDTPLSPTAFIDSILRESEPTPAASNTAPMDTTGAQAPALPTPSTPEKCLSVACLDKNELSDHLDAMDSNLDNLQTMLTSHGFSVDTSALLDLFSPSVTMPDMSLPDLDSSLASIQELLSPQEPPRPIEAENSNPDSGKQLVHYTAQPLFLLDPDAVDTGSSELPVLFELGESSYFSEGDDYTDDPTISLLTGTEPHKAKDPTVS

[3] = Luminescence Cell-Based Dose Confirmation HTS to Identify Inhibitors of Platelet Dense Granule Release. [Related pubchem assays: 1663 (Primary HTS), 1678 (Summary of Project)]; assay type: functional
[4] = molecular target: Luciferin 4-monooxygenase (Photinus pyralis, UniProt P08659); experiment: inhibition of purified Photinus pyralis luciferase – biochemical, luminescence, dose response (AID 1891)
[5] = molecular target: T3, Corticotropin-releasing factor receptor 2/Corticotropin-releasing factor-binding protein (Homo sapiens, UniProt P24387+Q13324); experiment: activators of CRF receptor 2 with binding protein – uHTS hits, confirmation (AID 602473); assay type: functional; conditions: read-out: EC50_Mean
T3 sequence (Q13324 whole entry): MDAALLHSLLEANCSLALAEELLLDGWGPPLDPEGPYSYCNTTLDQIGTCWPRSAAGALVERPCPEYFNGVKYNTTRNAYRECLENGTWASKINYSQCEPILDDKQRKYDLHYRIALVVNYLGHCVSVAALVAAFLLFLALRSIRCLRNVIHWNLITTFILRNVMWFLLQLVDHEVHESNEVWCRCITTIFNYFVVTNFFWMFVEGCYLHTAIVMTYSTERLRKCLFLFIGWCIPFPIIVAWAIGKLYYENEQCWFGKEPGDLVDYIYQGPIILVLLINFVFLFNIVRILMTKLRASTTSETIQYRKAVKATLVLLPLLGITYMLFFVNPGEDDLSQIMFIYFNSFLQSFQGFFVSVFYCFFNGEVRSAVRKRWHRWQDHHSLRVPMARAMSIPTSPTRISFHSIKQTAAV
T3 sequence (P24387 whole entry): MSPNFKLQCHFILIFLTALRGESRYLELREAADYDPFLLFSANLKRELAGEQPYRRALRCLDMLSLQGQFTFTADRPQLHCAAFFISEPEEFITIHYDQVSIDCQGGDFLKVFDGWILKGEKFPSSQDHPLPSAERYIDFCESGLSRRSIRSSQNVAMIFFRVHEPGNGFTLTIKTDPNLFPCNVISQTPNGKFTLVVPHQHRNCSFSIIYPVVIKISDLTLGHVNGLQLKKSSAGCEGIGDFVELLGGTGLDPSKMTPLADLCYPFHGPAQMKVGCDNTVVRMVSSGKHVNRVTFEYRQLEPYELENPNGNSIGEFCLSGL

[6] = molecular target: T3, Corticotropin-releasing factor receptor 2/Corticotropin-releasing factor-binding protein; experiment: Dose Response confirmation of uHTS hits for small molecule antagonists of the CRF-binding protein and CRF-R2 receptor complex.; assay type: functional; conditions: read-out: IC50_Mean
[7] = Luminescence Cell-Based Dose Retest to Confirm Inhibitors of Cancer Stem Cells. [Related pubchem assays (depositor defined):AID2717, AID2721]; assay type: functional; conditions: Homo sapiens
Cytochrome P450 2C19 = Cytochrome P450 2C19 (Homo sapiens, UniProt P33261); experiment: Cytochrome panel assay with activity outcomes. Panel member name: p450-cyp2c19 Compounds with AC50 equal or less than 10 uM are considered active; assay type: functional; conditions: read-out: AC50
[8] = P. falciparum Dd2 growth inhibitors, dose response, SYBR Green, cherry-picked samples (AID 1159567); assay type: functional, cell-based
Cytochrome P450 2C9 = Cytochrome P450 2C9 (Homo sapiens, UniProt P11712)
Cytochrome P450 2C9, sequence (P11712 whole entry): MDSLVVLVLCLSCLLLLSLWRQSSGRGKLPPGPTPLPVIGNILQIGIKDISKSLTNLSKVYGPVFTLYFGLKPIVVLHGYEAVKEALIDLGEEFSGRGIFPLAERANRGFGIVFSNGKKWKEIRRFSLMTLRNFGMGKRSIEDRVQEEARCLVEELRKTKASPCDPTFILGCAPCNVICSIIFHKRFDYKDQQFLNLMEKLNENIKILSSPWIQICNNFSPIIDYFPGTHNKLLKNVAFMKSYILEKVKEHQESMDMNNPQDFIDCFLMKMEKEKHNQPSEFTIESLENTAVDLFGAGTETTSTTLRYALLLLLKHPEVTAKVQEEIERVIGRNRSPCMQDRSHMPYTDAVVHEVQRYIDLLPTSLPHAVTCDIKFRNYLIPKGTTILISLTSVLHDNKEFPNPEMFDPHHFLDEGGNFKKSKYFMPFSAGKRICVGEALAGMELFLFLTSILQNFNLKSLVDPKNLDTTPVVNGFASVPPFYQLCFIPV

Luciferin 4-monooxygenase, sequence (P08659 whole entry): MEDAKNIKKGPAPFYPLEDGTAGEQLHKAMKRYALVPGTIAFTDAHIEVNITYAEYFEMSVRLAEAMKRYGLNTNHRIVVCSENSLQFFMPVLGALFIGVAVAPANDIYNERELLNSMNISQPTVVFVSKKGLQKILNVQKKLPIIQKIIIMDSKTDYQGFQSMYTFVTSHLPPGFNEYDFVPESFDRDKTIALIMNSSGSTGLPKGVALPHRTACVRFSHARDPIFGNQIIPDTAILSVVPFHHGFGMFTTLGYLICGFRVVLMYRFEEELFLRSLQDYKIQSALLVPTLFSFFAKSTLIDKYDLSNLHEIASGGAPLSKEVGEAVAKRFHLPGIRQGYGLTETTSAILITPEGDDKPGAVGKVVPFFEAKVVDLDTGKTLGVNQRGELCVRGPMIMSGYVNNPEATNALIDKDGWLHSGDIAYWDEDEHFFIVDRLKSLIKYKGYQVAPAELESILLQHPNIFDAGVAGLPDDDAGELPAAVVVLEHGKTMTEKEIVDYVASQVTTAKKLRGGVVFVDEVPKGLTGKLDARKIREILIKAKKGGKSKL
Cytochrome P450 2C19, sequence (P33261 whole entry): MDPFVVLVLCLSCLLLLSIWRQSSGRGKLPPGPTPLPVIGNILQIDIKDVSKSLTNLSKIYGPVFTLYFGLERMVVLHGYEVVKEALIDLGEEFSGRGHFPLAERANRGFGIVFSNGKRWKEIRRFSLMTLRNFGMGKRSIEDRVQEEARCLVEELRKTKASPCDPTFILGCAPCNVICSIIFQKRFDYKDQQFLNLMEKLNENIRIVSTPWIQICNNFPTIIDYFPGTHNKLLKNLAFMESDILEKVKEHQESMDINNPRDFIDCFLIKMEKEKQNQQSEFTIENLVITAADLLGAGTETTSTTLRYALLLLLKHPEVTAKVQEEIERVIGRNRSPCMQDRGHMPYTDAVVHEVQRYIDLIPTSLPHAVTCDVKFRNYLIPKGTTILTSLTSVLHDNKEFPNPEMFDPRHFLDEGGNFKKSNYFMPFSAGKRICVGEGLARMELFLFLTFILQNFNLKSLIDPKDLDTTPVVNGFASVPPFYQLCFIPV

IC50 [1]: 138 µM (active)
SMILES: COCC(C)NCc1ccccc1C (stereo not given)

EC50 [2]: > 195 µM (not active)
SMILES: Nc1nc(NCc2ccco2)nc(NC2CCCCC2)c1[N+](=O)[O-]

EC50 [2]: > 195 µM (not active)
SMILES: CCc1nn(CC(=O)N2CCC(C(N)=O)CC2)c(=O)c2cc3occc3n12

EC50 [2]: > 195 µM (not active)
SMILES: CCCCNC(=O)CN=C(S)N(Cc1ccccc1)Cc1cccs1

EC50 [2]: > 195 µM (not active)
SMILES: COc1ccc(N2C(=O)C(C)(C)C2c2c(O)ccc3ccccc23)cc1 (stereo not given)

EC50 [5]: > 53 µM (inactive)
IC50 [6]: > 47.1 µM (inactive)
SMILES: CCCN(C(=O)CSc1n[nH]c(-c2ccc(OC)cc2)n1)c1c(N)n(Cc2ccccc2)c(=O)[nH]c1=O

EC50 [2]: > 195 µM (not active)
SMILES: Cc1ccc(S(=O)(=O)N2CCN(C(=O)c3c(-c4ccccc4)noc3C)CC2)c(C)c1

IC50 [1]: 253 µM (active)
SMILES: Cc1cc(NC(=O)CN2CCC(C)CC2)no1

IC50 [1]: 223 µM (active)
SMILES: O=C(/C(=C/c1cccnc1)n1ccnc1)c1ccc(Cl)cc1Cl

IC50 [1]: 148 µM (active)
SMILES: Cc1sc2ncnc(N(C)CCc3ccccn3)c2c1C

EC50 [2]: > 195 µM (not active)
SMILES: Cc1cccc(CN2CCNC2=O)c1

EC50 [2]: > 195 µM (not active)
SMILES: CCOC(=O)CSc1nnc(-c2ccccc2)c(-c2ccccc2)n1

EC50 [5]: > 53 µM (inactive)
AC50 (Cytochrome P450 2C19): 22.4 µM (inconclusive)
IC50 [6]: > 47.1 µM (inactive)
SMILES: CCN(CCO)Cc1csc2cccc(Br)c12

EC50 [5]: > 53 µM (inactive)
IC50 [6]: > 47.1 µM (inactive)
SMILES: CC(=O)Nc1ccc(NC(=O)C(C)OC(=O)C2CCCCC2)cc1 (stereo not given)

EC50 [5]: > 53 µM (inactive)
IC50 [6]: > 47.1 µM (inactive)
SMILES: COc1ccc2[nH]cc(CCN=C(S)NC3CCCC3)c2c1

EC50 [2]: > 195 µM (not active)
AC50 (Cytochrome P450 2C19): 3.55 µM (inconclusive)
SMILES: O=C1C2CCCN2c2ccc(S(=O)(=O)N3CCOCC3)cc2N1Cc1cccc(C(F)(F)F)c1 (stereo not given)

EC50 [5]: > 53 µM (inactive)
IC50 [6]: > 47.1 µM (inactive)
SMILES: CC1=C(C(=O)OC(C)(C)C)C(c2cccc3ccccc23)NC(=O)N1 (stereo not given)

EC50 [2]: > 195 µM (not active)
SMILES: Cc1ccc(S(=O)(=O)NC(=NCc2ccccc2)c2ccc(F)cc2)cc1

IC50 [1]: 39.6 µM (active)
SMILES: COc1ccc(Cn2nnnc2C(c2cccnc2)N2CCN(c3ccc(O)cc3)CC2)cc1 (stereo not given)

IC50 [1]: 18.5 µM (active)
SMILES: N#CC1(Nc2ccc3c4c(cccc24)CC3)CCCCC1

EC50 [2]: > 195 µM (not active)
SMILES: CCOc1cc(/C=N/NC(=O)c2cccc(S(=O)(=O)N3CCOCC3)c2)ccc1OCC(=O)N(C)C

IC50 [1]: 29.1 µM (active)
SMILES: CN1CCN(/N=C/c2nc(-c3ccccc3)n3ccccc23)CC1

IC50 [1]: 52.1 µM (active)
SMILES: CCOc1cc(/C=N/NC(=O)C2CCCC2)ccc1O

IC50 [1]: 37 µM (active)
SMILES: COc1ccc(C(=O)/C=C/c2ccc(O)cc2)cc1

EC50 [2]: > 195 µM (not active)
AC50 (Cytochrome P450 2C9): 12.6 µM (inconclusive)
SMILES: Cc1cccc(Nc2ccncc2S(=O)(=O)NC(=O)NC(C)C)c1 [TORSEMIDE]

Second part, the compound before the results:

SMILES: Cc1cccc(C(=N)NOC(=O)c2ccc(Cl)cc2Cl)c1
EC50 [3]: 3.2 µM (active)
EC50 [4]: 0.761 µM (active)

SMILES: Cc1ccccc1Nc1scc(-c2ccc(Br)cc2)[n+]1-c1ccccc1C
EC50 [5]: > 53 µM (inactive)
IC50 [6]: > 47.1 µM (inactive)

SMILES: CCOC(=O)C1CCCN(C(=O)CCCn2nc(C)n3c(cc4sccc43)c2=O)C1 (stereo not given)
EC50 [3]: > 112 µM (not active)
EC50 [4]: > 112 µM (not active)

SMILES: O=C(Nc1cccc(O)c1)c1noc2c1CCc1ccccc1-2
EC50 [3]: 8.29 µM (active)
EC50 [4]: 1.03 µM (active)

SMILES: N#Cc1nc(Cc2ccccc2)oc1N1CCCC1
EC50 [3]: > 112 µM (not active)
EC50 [4]: 18.5 µM (active)

SMILES: CN(C)C(CNS(=O)(=O)c1ccc2ccccc2c1)c1ccccc1 (stereo not given)
AC50 [7]: > 195 µM (inactive)

SMILES: O=c1cc(N2CCCCC2)c(-c2ccccc2)nn1Cc1ccccc1
AC50 [7]: 2.06 µM (active)

SMILES: Cc1nc2oc3c(NCC4CCCO4)ncnc3c2c2c1COC(C)(C)C2 (stereo not given)
EC50 [3]: > 112 µM (not active)
EC50 [4]: > 112 µM (not active)

SMILES: O=C(Nc1cccc(F)c1)C1CCN(C(=O)Cc2ccccc2)CC1
EC50 [3]: > 112 µM (not active)
EC50 [4]: > 112 µM (not active)

SMILES: O=C(Cn1c(O)c(N=NC(=O)c2ccncc2)c2ccccc21)Nc1ccccc1
EC50 [3]: > 112 µM (not active)
EC50 [4]: > 112 µM (not active)

SMILES: O=C(c1ccc(S(=O)(=O)Nc2ccccc2)cc1)N1CCCC1
EC50 [3]: > 112 µM (not active)
EC50 [4]: > 112 µM (not active)

SMILES: CCCCn1c(=O)n(CC(=O)Nc2c(CC)cccc2CC)c(=O)c2c1nc(CO)n2CCC
EC50 [2]: > 195 µM (not active)

SMILES: COc1ccc(Br)cc1CNC(=O)c1ccc2c(c1)N(C)CCS2
EC50 [3]: > 112 µM (not active)
EC50 [4]: > 112 µM (not active)

SMILES: CC[C@@H]1CC=C[C@H]2[C@H]1C(=O)N(Cc1ccccc1)[C@H]2c1ccoc1
AC50 [7]: 5.39 µM (active)

SMILES: CN1CCc2c(sc(NC(=O)c3ccc(S(=O)(=O)N4CCc5ccccc54)cc3)c2C(N)=O)C1
AC50 [7]: 2.91 µM (active)

SMILES: Cc1cc(-c2ccc(S(=O)(=O)N3CCN(c4ccccc4F)CC3)s2)on1
EC50 [3]: > 112 µM (not active)
EC50 [4]: > 112 µM (not active)

SMILES: CCn1c(C(=O)O)c(CC(=O)Nc2ccccc2OC)c2ccccc21
EC50 [2]: > 195 µM (not active)

SMILES: CCOc1ccc(CN2CCN(CCCn3cccn3)CC2CCO)cc1 (stereo not given)
EC50 [3]: 83.2 µM (active)
EC50 [4]: > 112 µM (not active)

SMILES: CC(C)=CCc1c(O)cc2c(=O)c3ccc(O)cc3oc2c1O
AC50 [7]: 5.16 µM (active)

SMILES: CC(Cc1ccccc1)Nc1ncnc2c1ncn2C1OC(CO)C(O)C1O (stereo not given)
EC50 [3]: < 0.701 µM (active)
EC50 [4]: > 112 µM (not active)

SMILES: CC(C)(C)[S+]([O-])N1Cc2cc(C(=O)N[C@@H]3CCN(Cc4ccccc4)C3)nc(-c3cccc(C#CCC4CCCC4)c3)c2[C@H]1CCO (stereo not given in full)
AC50 [8]: 3.75 µM (active)

SMILES: COc1ccc(CN2CC3(C2)CN(Cc2ccc4c(c2)OCO4)[C@H](CO)c2[nH]c4cc(OC)ccc4c23)cc1
AC50 [8]: 3.49 µM (active)

SMILES: COc1ccccc1S(=O)(=O)N[C@H]1CC[C@@H](CCn2cc(C3CCCC3)nn2)O[C@@H]1CO
AC50 [8]: 11.5 µM (active)

SMILES: C[C@H]1CN([C@@H](C)CO)C(=O)c2cc(NC(=O)Cc3cn(C)c4ccccc34)ccc2O[C@H]1CN(C)S(=O)(=O)c1ccccc1
AC50 [8]: 4.86 µM (active)
